The target of the experiment is human recombinant H-PGDS (Homo sapiens, UniProt O60760). The experiment is described as follows: Fluorescence Intensity h-PGDS TBA Enzyme Assay. The experiment is classed as biochemical. The settings on record: 1:175,000 human recombinant H-PGDS, highest inhibitor concentration typically 1 μM. How it is done: Fluorescence Intensity h-PGDSTBA Enzyme Assay
Prostaglandin D Synthase (PGDS) converts the substrate prostaglandin H2 (PGH2) to prostaglandin D2. The depletion of PGH2 was measured via an Fe(II) reduction of the remaining PGH2 to malondialdehyde (MDA) and 12-HHT. The enzyme assay is based on the quantitative formation of a fluorescent complex from the non-fluorescent compounds MDA and 2-thiobarbituric acid (TBA), substantially as described in U.S. patent application publication US-2004/152148 by Lombardt.
The enzyme assay (31 μls) contained 100 mM Tris base pH 8.0, 100 μM MgCl2, 0.1 mg/ml IgG Rabbit serum, 5.0 μM PGH2 (Cayman; ethanol solution, #17020), 2.5 mM L-Glutathione (Sigma; reduced form #G4251), 1:175,000 human recombinant H-PGDS (from 1 mg/ml), 0.5% DMSO and inhibitor (varying concentration). Three μls of diluted inhibitor (dissolved in DMSO) was plated into a 384-well assay plate followed by a 25 μl addition of an enzyme solution containing h-PGDS, Tris, MgCl2, IgG and L-Glutathione. After preincubation of inhibitor and enzyme solution for 10 minutes at room temperature, the reaction was initiated with a 3 μl addition of substrate solution in 10 mM HCl. The reaction was terminated after 42 second by the addition (3 μl) of stop buffer containing FeCl2 and citric acid. After addition of 45.5 μls of TBA plates were heated for one hour in a 70 C oven. Plates were cooled at room temperature overnight and read on a plate reader the next day with excitation @ 530 nm and emission @ 565 nm.
IC50's of inhibitors were calculated with a 4-parameter fit using 11 inhibitor concentrations in duplicate with 3-fold serial dilutions. Controls on each plate included no inhibitor (zero % effect) and an inhibitor 10-fold in excess of its' IC50 (100% effect). The highest inhibitor concentration tested was typically 1 μM.

human recombinant H-PGDS, sequence (O60760 whole entry): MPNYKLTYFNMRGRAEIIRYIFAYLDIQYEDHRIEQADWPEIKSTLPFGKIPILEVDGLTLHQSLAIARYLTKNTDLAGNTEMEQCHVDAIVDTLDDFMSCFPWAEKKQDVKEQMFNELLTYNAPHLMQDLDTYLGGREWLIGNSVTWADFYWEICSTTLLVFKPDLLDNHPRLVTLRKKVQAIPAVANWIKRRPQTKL

In the case of `O=C(NCC1CCCCO1)c1ccc(-c2cccc(F)c2)nc1` (centres unmarked) [Example 525, 6-(3-Fluorophenyl)-N-(tetrahydro-2H-pyran-2-ylmethyl)nicotinamide], the half-inhibitory concentration (IC50) was determined as 68.5 nM.

`COc1cccc(-c2ccc(C(=O)NCCN3CCOC3=O)cn2)c1` [Example 298, 6-(3-Methoxyphenyl)-N-[2-(2-oxo-1,3-oxazolidin-3-yl)ethyl]nicotinamide]: the IC50 was 528 nM. `COc1cccc(OCC(O)CNC(=O)c2ccc(-c3cccc(F)c3)nc2)c1` (centres unmarked) [Example 49, 6-(3-Fluorophenyl)-N-[2-hydroxy-3-(3-methoxyphenoxy)propyl] nicotinamide]: the IC50 came to 10.8 nM.

Consider `O=C(NCC1CCCCO1)c1ccc(-c2ccccc2)nc1` (centres unmarked) [Example 399, 6-Phenyl-N-(tetrahydro-2H-pyran-2-ylmethyl) nicotinamide], for which the IC50 amounted to 27.6 nM.

On to `Cc1cccc(-c2ccc(C(=O)NCC(C)(C)CN(C)C)cn2)c1` [Example 242, N-[3-(Dimethylamino)-2,2-dimethylpropyl]-6-(3-methylphenyl)nicotinamide], for which the IC50 is 300 nM.

In the case of `COC(=O)[C@H](C)NC(=O)c1ccc(-c2cccc(F)c2)nc1` [Example 174, Methyl N-{[6-(3-fluorophenyl)pyridin-3-yl]carbonyl}alaninate], the IC50 was found to be 601 nM. Regarding `CC(C)(CNC(=O)c1ccc(-c2cccc(F)c2)nc1)N1CCOCC1` [Example 417, 6-(3-Fluorophenyl)-N-(2-methyl-2-morpholin-4-ylpropyl)nicotinamide], the IC50 amounted to 40.1 nM. As for `COc1cccc(-c2ccc(C(=O)NCC(C)(C)OC)cn2)c1` [Example 282, N-(2-Methoxy-2-methylpropyl)-6-(3-methoxyphenyl)nicotinamide], the IC50 is 959 nM. With `CCCCCNC(=O)c1ccc(-c2cccc(F)c2)nc1` [Example 427, 6-(3-Fluorophenyl)-N-pentylnicotinamide] the figure was 43.8 nM.

`NC(CC(=O)NC(=O)c1ccc(-c2cccc(F)c2)nc1)C1CC1` (centres unmarked) [Example 444, N-(3-Amino-3-cyclopropylpropanoyl)-6-(3-fluorophenyl) nicotinamide]: the IC50 turned out to be 95.2 nM. For `COc1ccccc1-c1nnc(CNC(=O)c2ccc(-c3cccc(F)c3)nc2)o1` [Example 439, 6-(3-Fluorophenyl)-N-{[5-(2-methoxyphenyl)-1,3,4-oxadiazol-2-yl]methyl}nicotinamide], the IC50 is 20 nM.

For `CCC1CCN(CCNC(=O)c2ccc(-c3ccccc3)nc2)CC1` [Example 371, N-[2-(4-Ethylpiperidin-1-yl)ethyl]-6-phenylnicotinamide], the IC50 is 20.1 nM.

In the case of `O=C(NCC1CCCN(c2ccccn2)C1)c1ccc(-c2cc(F)cc(F)c2)nc1` (centres unmarked) [Example 570, 6-(3,5-Difluorophenyl)-N-[(1-pyridin-2-ylpiperidin-3-yl)methyl]nicotinamide], the IC50 was 32.5 nM. Consider `O=C(CNC(=O)c1ccc(-c2ccccc2)nc1)OCc1ccccc1` [Example 367, Benzyl N-[(6-phenylpyridin-3-yl)carbonyl]glycinate], for which the IC50 was 6.6 nM. As to `Cc1cccc(NC(=O)c2ccc(-c3ccccc3)nc2)c1C` [Example 527, N-(2,3-Dimethylphenyl)-6-phenylnicotinamide], the IC50 came to 10.3 nM. With `O=C(NC[C@@H]1CCCN2CCCC[C@H]12)c1ccc(-c2cccc(F)c2)nc1` [Example 73, 6-(3-Fluorophenyl)-N-[(1S,9aR)-octahydro-2H-quinolizin-1-ylmethyl]nicotinamide] the figure was 92.9 nM. On to `O=C(CC(NC(=O)c1ccc(-c2cccc(F)c2)nc1)C1CC1)NCC1CC1` (centres unmarked) [Example 30, N-{1-Cyclopropyl-3-[(cyclopropylmethyl)amino]-3-oxopropyl}-6-(3-fluorophenyl)nicotinamide], for which the half-maximal inhibitory concentration (IC50) was 41 nM. On to `COc1ccc(CCc2nnc(CNC(=O)c3ccc(-c4cccc(F)c4)nc3)[nH]2)cc1` [Example 31, 6-(3-Fluorophenyl)-N-({5-[2-(4-methoxyphenyl)ethyl]-4H-1,2,4-triazol-3-yl}methyl)nicotinamide], for which the IC50 worked out at 35 nM.

As for `COc1cccc(-c2ccc(C(=O)NCC3C(=O)Nc4ccccc43)cn2)c1` (centres unmarked) [Example 313, 6-(3-Methoxyphenyl)-N-[(2-oxo-2,3-dihydro-1H-indol-3-yl)methyl]nicotinamide], the IC50 worked out at 7.62 nM. With `O=C(NCCc1ccc(O)cc1)c1ccc(-c2cccc(F)c2)nc1` [Example 446, 6-(3-Fluorophenyl)-N-[2-(4-hydroxyphenyl)ethyl] nicotinamide] the figure was 5.33 nM.

On to `CC(C)(CNC(=O)c1ccc(-c2ccccc2)nc1)N1CCOCC1` [Example 353, N-(2-Methyl-2-morpholin-4-ylpropyl)-6-phenylnicotinamide], for which the IC50 was 25.3 nM. As for `COc1cccc(-c2ccc(C(=O)NCc3cccc(F)c3)cn2)c1` [Example 311, N-(3-Fluorobenzyl)-6-(3-methoxyphenyl)nicotinamide], the IC50 was 368 nM. Turning to `Cc1cnc(CN2C(=O)CCC2CCNC(=O)c2ccc(-c3cccc(F)c3)nc2)cn1` (centres unmarked) [Example 56, 6-(3-Fluorophenyl)-N-(2-{1-[(5-methylpyrazin-2-yl)methyl]-5-oxopyrrolidin-2-yl}ethyl)nicotinamide], the IC50 was 19.8 nM.

Turning to `COc1cccc(-c2ccc(C(=O)NCCc3ccncc3)cn2)c1` [Example 345, 6-(3-Methoxyphenyl)-N-(2-pyridin-4-ylethyl)nicotinamide], the IC50 is 308 nM. On to `CC(=O)N1CCC(CNC(=O)c2ccc(-c3ccc(F)cc3)nc2)CC1` [Example 257, N-[(1-Acetylpiperidin-4-yl)methyl]-6-(4-fluorophenyl)nicotinamide], for which the IC50 worked out at 777 nM. Consider `O=C(NCc1ccccc1)c1ccc(-c2ccc(F)cc2)nc1` [Example 499, N-Benzyl-6-(4-fluorophenyl)nicotinamide], for which the IC50 amounted to 321 nM.

As for `O=C(NC(c1ccccc1)c1nc(CN2CCOCC2)no1)c1ccc(-c2cccc(F)c2)nc1` (centres unmarked) [Example 15, 6-(3-Fluorophenyl)-N-{[3-(morpholin-4-ylmethyl)-1,2,4-oxadiazol-5-yl](phenyl)methyl}nicotinamide], the IC50 came out at 70.9 nM. As for `CCOC(=O)CC[C@@H](NC(=O)c1ccc(-c2cccc(F)c2)nc1)C(=O)OCC` [Example 166, Diethyl N-{[6-(3-fluorophenyl)pyridin-3-yl]carbonyl}-D-glutamate], the IC50 was determined as 2.57 nM.

Regarding `O=C(NC1CCN(Cc2ccc(Cl)c(Cl)c2)C1=O)c1ccc(-c2ccc(F)cc2)nc1` (centres unmarked) [Example 479, N-[1-(3,4-Dichlorobenzyl)-2-oxopyrrolidin-3-yl]-6-(4-fluorophenyl)nicotinamide], the IC50 turned out to be 896 nM.

Turning to `COc1cccc(-c2ccc(C(=O)NC3CCOCC3)cn2)c1` [Example 305, 6-(3-Methoxyphenyl)-N-(tetrahydro-2H-pyran-4-yl)nicotinamide], the IC50 was 38.7 nM. As for `COc1cc(F)cc(-c2ccc(C(=O)NCCC3CCCCO3)cn2)c1` (centres unmarked) [Example 560, 6-(3-Fluoro-5-methoxyphenyl)-N-[2-(tetrahydro-2H-pyran-2-yl)ethyl]nicotinamide], the IC50 came out at 129 nM.

In the case of `CCCOCCCNC(=O)c1ccc(-c2cc(F)cc(F)c2)nc1` [Example 569, 6-(3,5-Difluorophenyl)-N-(3-propoxypropyl)nicotinamide], the IC50 is 25.1 nM.

As a reminder, the IC50 is the concentration that gives 50% inhibition.

(Values after patent US20110306597A1, “Nicotinamide Derivatives” (priority 2008, published 2011).)
